# Where two headings read alike, the source gives them in different places.
# Columns and labels:
# [1] = tested on: corneal neovascularization; assay: AVASTIN in the scleral lens drug delivery system to treat corneal neovascularization; type: in vivo
# Excerpt: This study using AVASTIN® off-label, topically, to treat corneal neovascularization was repeated using the scleral lens drug delivery system. […] This therapeutic effect was achieved without BAK. Instead, the expanded pre-corneal tear film of the scleral lens drug delivery system provided adequate bioavailability of the drug without exposing the cornea to BAK.
# [2] = tested on: corneal neovascularization; conditions: solution of 1% AVASTIN and 0.01% BAK, one drop, four times per day for at least thirty days, topical; cited from earlier work
substance,measurement,setting,value
bevacizumab [AVASTIN®],therapeutic effect on corneal neovascularization,"[1]; one drop of 1% AVASTIN added to expanded pre-corneal tear film of artificial tears in a scleral lens twice per day, without BAK",achieved a therapeutic effect by thirty days with continued benefit over the subsequent sixty days
same,"regression of corneal neovascularization (clinical photos, FIG. 5)",[1]; scleral lens drug delivery system,regression of corneal neovascularization
same,therapeutic effect on corneal neovascularization,[2],Therapeutic effect was reported
